# Several values for one entry are separate records, joined by “and”; a condition that tells them apart may be missing. Equal values may be shown once.
# Columns and labels:
# Aurora B = Aurora B (Homo sapiens, UniProt Q96GD4); assay: Aurora-B microfluidic kinase assay; settings: biochemical; mean of two determinations or mean ±SD for n > 2
# From the text: (§1) As part of our medicinal chemistry programme to discover selective inhibitors of Aurora-A,[12] we introduced the 1-benzyl-1H-pyrazol-4-yl moiety at C7 of the imidazo[4,5-b]pyridine scaffold to provide 7a (Table 1). We previously reported 1,3-dimethyl-1H-pyrazol-4-yl as a preferred substituent at the C2 position of the imidazo[4,5-b]pyridine scaffold[11] and this moiety was therefore incorporated into the design of 7a and analogues presented in this study. […] This in vitro profile prompted us to investigate this C7-pyrazole substituted imidazo[4,5-b]pyridine subseries in more detail. Firstly, we attempted to increase biochemical potency against Aurora-A, and also to improve microsomal stability.
# (§2) [17] Aurora-A and Aurora-B IC50 values were determined by using a microfluidic assay which monitors the separation of a phosphorylated product from its substrate, as described in Ref. [12].
# [1] = Human liver microsomal stability; format: in vitro ADME; settings: percentage of compound metabolised after a 30 min incubation, human liver microsomes
# Method: (§3) [18] MLM and HLM microsomal stabilities were determined as described in Ref. [12].
# Aurora A = molecular target: T1, Aurora A (Homo sapiens, UniProt O14965); assay: Aurora-A microfluidic kinase assay; format: biochemical; settings: for IC50: biochemical, mean of two determinations or mean ±SD for n > 2; for fold more potent on Aurora-A relative to Aurora-B: ratio of biochemical IC50s
# T1 sequence (O14965 1-403): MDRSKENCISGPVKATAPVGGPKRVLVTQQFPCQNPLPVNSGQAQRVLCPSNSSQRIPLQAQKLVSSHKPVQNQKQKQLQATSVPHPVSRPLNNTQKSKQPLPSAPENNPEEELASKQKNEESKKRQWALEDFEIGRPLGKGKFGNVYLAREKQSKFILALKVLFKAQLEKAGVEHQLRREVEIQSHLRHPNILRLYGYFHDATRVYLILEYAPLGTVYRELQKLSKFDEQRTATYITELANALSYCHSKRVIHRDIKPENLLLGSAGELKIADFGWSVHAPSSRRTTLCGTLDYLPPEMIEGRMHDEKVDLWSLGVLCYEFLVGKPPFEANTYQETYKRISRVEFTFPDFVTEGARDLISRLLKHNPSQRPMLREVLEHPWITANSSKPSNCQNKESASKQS
# From the text: as §1, §2
# [2] = Mouse liver microsomal stability; format: in vitro ADME; settings: percentage of compound metabolised after a 30 min incubation, mouse liver microsomes
# Method: as §3
# [3] = Protein binding in microsomal incubations (MLM); format: in vitro ADME, mouse
# Method: (§4) For a better understanding of the microsomal stability data, the protein binding for 7a, 7d and 7e in microsomal incubations was measured. The percentage of 7a unbound in MLM and HLM was determined as 6.71 and 4.89, respectively. Compounds 7d and 7e were more highly bound: for 7d the percentage unbound was 0.50 in both MLM and HLM and for 7e was 0.16 and 0.10, respectively. […] The potent cell-based activity prompted us to investigate kinome selectivity profiles for this class of compound by screening 7a and 7d in a 102-kinase panel at a concentration of 1 μM.[20] […] The Gini coefficient for compound 3 was reported as 0.719,[12] and the corresponding value for compound 1 is 0.560. To understand the potential for further improvement, we obtained the crystal structure of 7a bound to Aurora-A[22] (Fig. 3, Table S3, Supplementary data). […] Similar to crystal structures of previous compounds 1, 15 and 16 (Figs. 1 and 2; compounds 51 and 40c in Ref. [10], and compound 21a in Ref. [11], respectively) the N-benzyl substituent on the C7-pyrazole is oriented towards the P-loop, making Van der Waals contacts with Val147 and Gly142 (Fig. 3).
# [4] = Protein binding in microsomal incubations (HLM); format: in vitro ADME, human
# Method: as §4
# Sequence of Aurora B (Q96GD4 whole entry): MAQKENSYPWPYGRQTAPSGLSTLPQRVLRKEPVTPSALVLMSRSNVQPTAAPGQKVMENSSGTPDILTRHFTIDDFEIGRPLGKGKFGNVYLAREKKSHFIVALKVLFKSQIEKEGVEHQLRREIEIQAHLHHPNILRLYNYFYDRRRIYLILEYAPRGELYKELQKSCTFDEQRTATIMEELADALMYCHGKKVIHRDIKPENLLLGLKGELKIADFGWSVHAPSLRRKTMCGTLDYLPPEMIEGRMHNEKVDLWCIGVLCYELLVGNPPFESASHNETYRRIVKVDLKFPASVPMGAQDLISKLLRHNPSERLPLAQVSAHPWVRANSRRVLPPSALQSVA
SMILES,IC50 (Aurora B),HLM % met/30 min [1],IC50 (Aurora A),fold more potent on Aurora-A relative to Aurora-B (Aurora A),MLM % met/30 min [2],percentage unbound in MLM [3],percentage unbound in HLM [4]
Cc1nn(C)cc1-c1nc2c(-c3cnn(Cc4cccc(C(=O)N5CCN(C)CC5)c4)c3)c(Cl)cnc2[nH]1 [Compound 14b],235 nM,87%,46 nM,5 fold,97%,,
Cc1nn(C)cc1-c1nc2c(-c3cnn(Cc4cccc(C(=O)N(C)C)c4)c3)c(Cl)cnc2[nH]1 [Compound 14a],296 nM,72% and 72/72%,36 nM,8 fold,72/72%,,
Cc1nn(C)cc1-c1nc2c(-c3cnn(-c4ccc(F)cc4)c3)c(Cl)cnc2[nH]1 [Compound 7e],> 10000 nM,20%,> 10000 nM,,31%,0.16%,0.10%
Cc1nn(C)cc1-c1nc2c(-c3cnn(Cc4ccccc4C(=O)N4CCN(C)CC4)c3)c(Cl)cnc2[nH]1 [Compound 14c],354 nM,82%,126 nM,,98%,,
